Results taken from ChEMBL document CHEMBL1201862, “PubChem BioAssay data set” (2004).
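Following 48 hours of exposure in 96-well plates, responses at five concentrations were used to interpolate endpoints linearly. The concentration for 50% growth inhibition is given as GI50.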 Active and inactive are the calls of the source. Cut-off read from the data, not from the text of the source: active = GI50 up to about 1.1 µM and inactive = higher.

What was measured:
Assay in all cases: growth of human tumour cells (NCI), 48 h
[1] = system: SR
[2] = system: UACC-257
[3] = system: CAKI-1
[4] = system: Malme-3M
[5] = system: KM12
[6] = system: TK-10
[7] = system: HOP-62
[8] = system: HOP-92
[9] = system: HCT-15
[10] = system: MOLT-4
[11] = system: HL-60
[12] = system: RPMI-8226
[13] = system: A498
[14] = system: HCT-116
[15] = system: SF-268
[16] = system: OVCAR-5
[17] = system: IGROV-1
[18] = system: NCI-H522

| SMILES | GI50 [1] | GI50 [2] | GI50 [3] | GI50 [4] | GI50 [5] | GI50 [6] | GI50 [7] | GI50 [8] | GI50 [9] [µM] | GI50 [10] | GI50 [11] | GI50 [12] | GI50 [13] | GI50 [14] | GI50 [15] | GI50 [16] | GI50 [17] | GI50 [18] |
| --- | --- | --- | --- | --- | --- | --- | --- | --- | --- | --- | --- | --- | --- | --- | --- | --- | --- | --- |
| CCC(=O)C1(c2ccccc2)CCN(C)CC1 | > 100 µM (inactive) | > 100 µM (inactive) | > 100 µM (inactive) | > 100 µM (inactive) | > 100 µM (inactive) | > 100 µM (inactive) | > 100 µM (inactive) | > 100 µM (inactive) | > 100 | > 100 µM (inactive) | > 100 µM (inactive) | > 100 µM (inactive) | > 100 µM (inactive) | > 100 µM (inactive) | > 100 µM (inactive) | > 100 µM (inactive) | > 100 µM (inactive) | – |
| C1CNCCNCCN1 | > 100 µM (inactive) | > 100 µM (inactive) | > 100 µM (inactive) | – | > 100 µM (inactive) | > 100 µM (inactive) | > 100 µM (inactive) | > 100 µM (inactive) | > 100 | > 100 µM (inactive) | > 100 µM (inactive) | > 100 µM (inactive) | > 100 µM (inactive) | > 100 µM (inactive) | > 100 µM (inactive) | > 100 µM (inactive) | > 100 µM (inactive) | > 100 µM (inactive) |
| Cc1c(C(=O)OCc2ccccc2)[n+]([O-])c2ccccc2[n+]1[O-] | 19.5 µM (inactive) | 17.8 µM (inactive) | 24.5 µM (inactive) | – | 28.1 µM (inactive) | 33.2 µM (inactive) | 22.3 µM (inactive) | 0.22 µM (active) | 40.9 | 5.4 µM (inactive) | 26.1 µM (inactive) | 11.6 µM (inactive) | 36.1 µM (inactive) | 25.1 µM (inactive) | 34.7 µM (inactive) | 60.1 µM (inactive) | 13 µM (inactive) | – |
| O=c1c2cc([N+](=O)[O-])cnc2sn1-c1ccc(Oc2ccccc2)cc1 | 49.2 µM (inactive) | > 100 µM (inactive) | – | 21.7 µM (inactive) | 78.5 µM (inactive) | > 100 µM (inactive) | 34.2 µM (inactive) | 23 µM (inactive) | > 100 | > 100 µM (inactive) | 39.9 µM (inactive) | 41.5 µM (inactive) | – | 25.2 µM (inactive) | 39.6 µM (inactive) | 58.3 µM (inactive) | 82.8 µM (inactive) | 4.66 µM (inactive) |
| COc1nc(C#CCCCC#N)nc(OC)n1 | 7.38 µM (inactive) | 18.9 µM (inactive) | 12.8 µM (inactive) | 13.4 µM (inactive) | 16.9 µM (inactive) | 21.6 µM (inactive) | 24.2 µM (inactive) | – | 3.29 | 14.4 µM (inactive) | 4.13 µM (inactive) | – | 20.7 µM (inactive) | 8.79 µM (inactive) | 27.3 µM (inactive) | 13.5 µM (inactive) | 17.3 µM (inactive) | 14.2 µM (inactive) |
| Cc1ccc(C(=N)c2ccccc2Cc2cccc3ccccc23)c2ccccc12 | 41.6 µM (inactive) | 33.1 µM (inactive) | > 100 µM (inactive) | > 100 µM (inactive) | > 100 µM (inactive) | > 100 µM (inactive) | > 100 µM (inactive) | > 100 µM (inactive) | 40.6 | 58.7 µM (inactive) | 44.1 µM (inactive) | – | > 100 µM (inactive) | 22.1 µM (inactive) | > 100 µM (inactive) | > 100 µM (inactive) | > 100 µM (inactive) | 56.5 µM (inactive) |
| N/C(=N\c1ccccc1)c1ccccc1N | > 100 µM (inactive) | > 100 µM (inactive) | > 100 µM (inactive) | – | > 100 µM (inactive) | > 100 µM (inactive) | > 100 µM (inactive) | 2.51 µM (inactive) | > 100 | > 100 µM (inactive) | 31.4 µM (inactive) | > 100 µM (inactive) | > 100 µM (inactive) | > 100 µM (inactive) | > 100 µM (inactive) | > 100 µM (inactive) | > 100 µM (inactive) | – |
| CN(C)CCCNC(=O)N/N=C/c1ccc([N+](=O)[O-])cc1 | > 100 µM (inactive) | > 100 µM (inactive) | > 100 µM (inactive) | 40.2 µM (inactive) | 95.3 µM (inactive) | > 100 µM (inactive) | > 100 µM (inactive) | – | > 100 | > 100 µM (inactive) | > 100 µM (inactive) | – | 66.4 µM (inactive) | > 100 µM (inactive) | > 100 µM (inactive) | > 100 µM (inactive) | > 100 µM (inactive) | > 100 µM (inactive) |
